Experimental data as given in US6812258B2, “Cancer treatment composition and method using natural plant essential oils” (Ecosmart Technologies, Inc., priority 1998, dated 2004).
Like-named read-outs stand apart in the source and are kept apart here.

How the values were obtained:
[1] = test system: Human Epithelial Breast Cancer Cells (MCF-7); assay: Antiproliferative effect, 3H-thymidine incorporation in MCF-7 cells with and without estrogen; type: cell-based; conditions: for activity at 50 µg/mL: Homo sapiens, MCF7, 24 h
Protocol: (§1) MCF-7 cells were cultured in growth medium supplemented with 10% fetal bovine serum (FBS). At 85% confluence, cells were sub-cultured in 5% FBS serum stripped medium, phenol red free for 24 hours prior to the treatment of the test chemical. After 24 hours of treatment cell proliferation was measured using ^3H-thymidine incorporation. These test chemicals were tested in the presence and absence of estrogen to address if they have anti-estrogenic activity in addition to their antiproliferative effect. The study was done in triplicate and a control was used with solvent only. Control received solvent only at <0.1% ethanol. Estrogen was tested at 1 nM (=0.27 ng E2/ml). Exemplary plant essential oil compounds were tested at 50 ug/ml.
as §1, with “(0.27” for “(=0.27”, “Plant” for “Exemplary plant”

[2] = test system: MCF-7 cells; assay: Dose-response effect on E2-induced cell growth, viable cell count (trypan blue, haemocytometer); type: cell-based, human
Protocol: MCF-7 cells were cultured in growth medium supplemented with 10% fetal bovine serum (FBS). At 85% confluence, cells were sub-cultured in 6 well petri-dishes and supplemented with 5% FBS serum stripped medium, phenol red free for 24 hours prior to the treatment of different concentrations of the test chemicals. After 5 days of treatment cells were trypsinized, collected using Eppendorf microcentrifuge. The cell pellets were resuspended in 1% trypan blue and three aliquots (10 ul each) of the viable cell suspension were counted using a haemocytometer assay. Each sample was then counted three times and the data shown is the average of three counts. These test chemicals were tested in the presence of 10 nM estrogen (=2.7 ng estrogen/ml). Two wells per test concentration were used. This experiment was repeated two times. Control received solvent only at <0.1% ethanol.

[3] = read-out: 3H-thymidine incorporation % of control value, Table 1, test chemical 50 ug/ml + estrogen 1 nM, 24 hours treatment
[4] = read-out: 3H-thymidine incorporation % of control value, Table 1, test chemical 50 ug/ml alone, 24 hours treatment
[5] = Table 1, test chemical 50 ug/ml + estrogen 1 nM, 24 hours treatment
[6] = Table 1, test chemical 50 ug/ml alone, 24 hours treatment
[7] = test chemical 1 μg/ml + E2 10 nM, Day 5
[8] = test chemical 5 μg/ml + E2 10 nM, Day 5
[9] = test chemical 10 μg/ml + E2 10 nM, Day 5
[10] = test chemical 20 μg/ml + E2 10 nM, Day 5
[11] = Table 1, test chemical 50 ug/ml + estrogen 1 nM, 24 hours treatment, read-out: 3H-thymidine incorporation % of control value
[12] = Table 1, test chemical 50 ug/ml alone, 24 hours treatment, read-out: 3H-thymidine incorporation % of control value
[13] = Table 2, test chemical 50 ug/ml + estrogen 1 nM, 24 hours treatment, read-out: 3H-thymidine incorporation % of control value
[14] = Table 2, test chemical 50 ug/ml alone, 24 hours treatment, read-out: 3H-thymidine incorporation % of control value
[15] = Table 2, test chemical 50 ug/ml + estrogen 1 nM, 24 hours treatment
[16] = Table 2, test chemical 50 ug/ml alone, 24 hours treatment
[17] = Table 1, estrogen alone 1 nM, 24 hours treatment
[18] = Table 2, estrogen alone 1 nM, 24 hours treatment
[19] = test chemical 50 μg/ml + E2 10 nM, Day 5

## C=CCc1ccc(O)c(OC)c1 [Eugenol]
[1]; [3]
  activity at 50 µg/mL: 70%
[1]; [4]
  activity at 50 µg/mL: 52%
[1]; [5]
  3H-thymidine incorporation % of estrogen value: 44%
  3H-thymidine incorporation dpm/ug protein: 289.1 dpm/ug protein
[1]; [6]
  3H-thymidine incorporation dpm/ug protein: 215.6 dpm/ug protein
[2]; 1 ug/ml, summary of Table 3
  protection against the E2-induced abnormal growth in cancer breast cells: 35%
[2]; [7]
  % anti-E2: 25.00%
  Cell count average: 24.0 × (10^4)/ml
  Cell count well #1: 19 × (10^4)/ml
  Cell count well #2: 29 × (10^4)/ml
[2]; [8]
  % anti-E2: 41.70%
  Cell count average: 19.0 × (10^4)/ml
  Cell count well #1: 19 × (10^4)/ml
  Cell count well #2: 19 × (10^4)/ml
[2]; [9]
  % anti-E2: 50.00%
  Cell count average: 16.0 × (10^4)/ml
  Cell count well #1: 18 × (10^4)/ml
  Cell count well #2: 14 × (10^4)/ml
[2]; [10]
  % anti-E2: 60.40%
  Cell count average: 13.0 × (10^4)/ml
  Cell count well #1: 10 × (10^4)/ml
  Cell count well #2: 16 × (10^4)/ml

## Cc1ccc(C(C)C)c(O)c1 [Thymol]
[1]; [11]
  activity at 50 µg/mL: 26%
[1]; [12]
  activity at 50 µg/mL: 23%
[1]; [5]
  3H-thymidine incorporation % of estrogen value: 16%
  3H-thymidine incorporation dpm/ug protein: 108.2 dpm/ug protein
[1]; [6]
  3H-thymidine incorporation dpm/ug protein: 97.3 dpm/ug protein
[2]; 5 ug/ml, summary of Table 3
  protection against the E2-induced abnormal growth in cancer breast cells: 40%
[2]; [7]
  % anti-E2: 00.00%
  Cell count average: 32.0 × (10^4)/ml
  Cell count well #1: 32 × (10^4)/ml
  Cell count well #2: 32 × (10^4)/ml
[2]; [8]
  % anti-E2: 40.60%
  Cell count average: 19.0 × (10^4)/ml
  Cell count well #1: 20 × (10^4)/ml
  Cell count well #2: 18 × (10^4)/ml
[2]; [9]
  % anti-E2: 62.50%
  Cell count average: 12.0 × (10^4)/ml
  Cell count well #1: 12 × (10^4)/ml
  Cell count well #2: 12 × (10^4)/ml
[2]; [10]
  % anti-E2: 62.50%
  Cell count average: 12.0 × (10^4)/ml
  Cell count well #1: 10 × (10^4)/ml
  Cell count well #2: 14 × (10^4)/ml

## C/C=C/c1ccc(OC)cc1 [Trans-anethole]
[1]; [11]
  activity at 50 µg/mL: 142%
[1]; [12]
  activity at 50 µg/mL: 105%
[1]; [5]
  3H-thymidine incorporation % of estrogen value: 89%
  3H-thymidine incorporation dpm/ug protein: 589.8 dpm/ug protein
[1]; [6]
  3H-thymidine incorporation dpm/ug protein: 434.9 dpm/ug protein

## Cc1ccc(C(C)C)cc1O [Carvacrol]
[1]; [3]
  activity at 50 µg/mL: 43%
[1]; [4]
  activity at 50 µg/mL: 50%
[1]; [5]
  3H-thymidine incorporation % of estrogen value: 28%
  3H-thymidine incorporation dpm/ug protein: 181.7 dpm/ug protein
[1]; [6]
  3H-thymidine incorporation dpm/ug protein: 207.2 dpm/ug protein

## Cc1ccc(C(C)C)cc1 [p-cymene]
[1]; [11]
  activity at 50 µg/mL: 152%
[1]; [12]
  activity at 50 µg/mL: 101%
[1]; [5]
  3H-thymidine incorporation % of estrogen value: 96%
  3H-thymidine incorporation dpm/ug protein: 632.0 dpm/ug protein
[1]; [6]
  3H-thymidine incorporation dpm/ug protein: 419.0 dpm/ug protein

## CC1=CCC(C(C)(C)O)CC1 (stereo not drawn) [α-terpineol]
[1]; [11]
  activity at 50 µg/mL: 164%
[1]; [12]
  activity at 50 µg/mL: 116%
[1]; [13]
  activity at 50 µg/mL: 145%
[1]; [14]
  activity at 50 µg/mL: 112%
[1]; [5]
  3H-thymidine incorporation % of estrogen value: 103%
  3H-thymidine incorporation dpm/ug protein: 679.1 dpm/ug protein
[1]; [6]
  3H-thymidine incorporation dpm/ug protein: 480.5 dpm/ug protein
[1]; [15]
  3H-thymidine incorporation % of estrogen value: 96%
  3H-thymidine incorporation dpm/μg protein: 636.7 dpm/μg protein
[1]; [16]
  3H-thymidine incorporation dpm/μg protein: 490.7 dpm/μg protein

## COc1ccccc1O [Guaiacol]
[1]; [13]
  activity at 50 µg/mL: 180%
[1]; [14]
  activity at 50 µg/mL: 163%
[1]; [15]
  3H-thymidine incorporation % of estrogen value: 119%
  3H-thymidine incorporation dpm/μg protein: 788.8 dpm/μg protein
[1]; [16]
  3H-thymidine incorporation dpm/μg protein: 712.3 dpm/μg protein

## Estrogen [reference compound]
[1]; Table 1, estrogen alone 1 nM (reference)
  3H-thymidine incorporation % of estrogen value: 100%
[1]; [17]
  3H-thymidine incorporation % of control value: 158%
  3H-thymidine incorporation dpm/ug protein: 658.6 dpm/ug protein
[1]; Table 2, estrogen alone 1 nM (reference)
  3H-thymidine incorporation % of estrogen value: 100%
[1]; [18]
  3H-thymidine incorporation % of control value: 151.6%
  3H-thymidine incorporation dpm/μg protein: 664.2 dpm/μg protein
[2]; E2 10 nM alone, Day 5
  Cell count % of control: 145%
  Cell count average: 32.0 × (10^4)/ml
  Cell count well #1: 36 × (10^4)/ml
  Cell count well #2: 28 × (10^4)/ml

## C=C(C)[C@H]1CC=C(C)CC1 [R-(+)-Limonene]
[1]; [15]
  3H-thymidine incorporation % of control value: 119.3%
  3H-thymidine incorporation % of estrogen value: 79%
  3H-thymidine incorporation dpm/μg protein: 522.6 dpm/μg protein
[1]; [16]
  3H-thymidine incorporation % of control value: 89.7%
  3H-thymidine incorporation dpm/μg protein: 393.1 dpm/μg protein

## O=C/C=C\c1ccccc1 [cinnamic aldehyde]
[2]; 50 ug/ml, summary of Table 3
  control against the E2-induced abnormal growth in cancer breast cells: approximately 96%
[2]; [19]
  % anti-E2: 96.90%
  Cell count average: 01.0 × (10^4)/ml
  Cell count well #1: 00 × (10^4)/ml
  Cell count well #2: 02 × (10^4)/ml

## COC(=O)c1ccccc1O [Methyl salicylate]
[1]; [11]
  activity at 50 µg/mL: 168%
[1]; [12]
  activity at 50 µg/mL: 107%
[1]; [5]
  3H-thymidine incorporation % of estrogen value: 106%
  3H-thymidine incorporation dpm/ug protein: 693.9 dpm/ug protein
[1]; [6]
  3H-thymidine incorporation dpm/ug protein: 444.0 dpm/ug protein

## CC(C)=CCCC(C)CC=O (stereo not drawn) [Citronellal]
[1]; [11]
  activity at 50 µg/mL: 69%
[1]; [12]
  activity at 50 µg/mL: 20%
[1]; [5]
  3H-thymidine incorporation % of estrogen value: 43%
  3H-thymidine incorporation dpm/ug protein: 284.0 dpm/ug protein
[1]; [6]
  3H-thymidine incorporation dpm/ug protein: 85.2 dpm/ug protein

## OCc1ccccc1 [benzyl alcohol]
[2]; [19]
  % anti-E2: 35.40%
  Cell count average: 21.0 × (10^4)/ml
  Cell count well #1: 24 × (10^4)/ml
  Cell count well #2: 18 × (10^4)/ml

## CC12CCC(CC1)C(C)(C)O2 [Eucalyptol]
[1]; [11]
  activity at 50 µg/mL: 137%
[1]; [12]
  activity at 50 µg/mL: 96%
[1]; [5]
  3H-thymidine incorporation % of estrogen value: 86%
  3H-thymidine incorporation dpm/ug protein: 568.0 dpm/ug protein
[1]; [6]
  3H-thymidine incorporation dpm/ug protein: 398.0 dpm/ug protein

## OC/C=C/c1ccccc1 [Cinnamic alcohol]
[1]; [11]
  activity at 50 µg/mL: 53%
[1]; [12]
  activity at 50 µg/mL: 4%
[1]; [5]
  3H-thymidine incorporation % of estrogen value: 34%
  3H-thymidine incorporation dpm/ug protein: 220.8 dpm/ug protein
[1]; [6]
  3H-thymidine incorporation dpm/ug protein: 18.5 dpm/ug protein

## CC1=CC[C@H](C(C)C)C=C1 [α-phellandrene]
[1]; [15]
  3H-thymidine incorporation % of control value: 145.0%
  3H-thymidine incorporation % of estrogen value: 96%
  3H-thymidine incorporation dpm/μg protein: 635.3 dpm/μg protein
[1]; [16]
  3H-thymidine incorporation % of control value: 79.5%
  3H-thymidine incorporation dpm/μg protein: 348.4 dpm/μg protein
